Results on one compound are retold here after publication PMC3521585 (Journal of medicinal chemistry, 2009).

The target of the experiment is Substance P receptors (GPI) (Cavia porcellus, UniProt P30547). In words: Substance P antagonist assay in guinea pig ileum with naloxone. In kind it is cell-based. The note with it: against Substance P induced contraction, 1 μM naloxone, n = 4.
Substance P receptors (GPI), sequence (P30547 whole entry): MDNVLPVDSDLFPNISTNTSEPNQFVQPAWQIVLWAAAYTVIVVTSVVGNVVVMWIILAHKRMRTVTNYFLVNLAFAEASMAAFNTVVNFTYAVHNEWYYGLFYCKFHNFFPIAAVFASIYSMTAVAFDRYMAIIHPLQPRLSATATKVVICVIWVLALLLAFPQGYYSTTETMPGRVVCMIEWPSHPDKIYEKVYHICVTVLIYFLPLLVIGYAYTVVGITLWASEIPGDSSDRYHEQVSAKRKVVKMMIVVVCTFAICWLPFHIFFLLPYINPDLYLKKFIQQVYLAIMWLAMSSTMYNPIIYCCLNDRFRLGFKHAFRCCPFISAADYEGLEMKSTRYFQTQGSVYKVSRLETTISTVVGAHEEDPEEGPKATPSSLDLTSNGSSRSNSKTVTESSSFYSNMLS

As to `CC(=O)N[C@@H](Cc1c[nH]c2ccccc12)C(=O)OCc1cc(C(F)(F)F)cc(C(F)(F)F)c1` [L-732,138, Ac-Trp-O-3’,5’-Bzl(CF3)2], the “Ke, GPI, Substance P antagonist” value is reported as 250 ± 87 nM.
